# In patent publication US20180042930A1, “METHODS OF TREATMENT OF MALIGNANCIES” (Celgene Corporation, priority 2016, published 2018):
# Experiments:
# [1] = system: advanced hematologic malignancies with an IDH2 mutation; assay: Phase 1/2 study of orally administered COMPOUND A: clinical activity (overall response rate); format: in vivo, human; conditions: 44 subjects treated at 100 mg QD; preliminary efficacy data
# Source text: This was a Phase 1/2, multicenter, open-label, 3-part (Phase 1 dose escalation, Phase 1 Part 1 Expansion, and Phase 2), safety, PK/PD, and clinical activity evaluation of orally administered COMPOUND A in subjects with advanced hematologic malignancies, for example MDS, that harbor an IDH2 mutation. The study included a dose escalation phase to determine MTD/MAD and/or RP2D, an expansion phase (Part 1) to further evaluate the safety, tolerability, and clinical activity of COMPOUND A, and a Phase 2 to assess the clinical efficacy of COMPOUND A at the RP2D and to further evaluate safety in subjects with refractory and relapsed AML carrying an IDH2 mutation.
# Subjects in the dose escalation phase and Part 1 Expansion had the extent of their disease assessed, including bone marrow biopsies and/or aspirates and peripheral blood, at screening, on C1D15, C2D1, and C3D1, every 28 days (peripheral blood only) or every 56 days (bone marrow biopsies and/or aspirates and peripheral blood) thereafter while on study drug treatment, independent of dose delays and/or dose interruptions, and/or at any time when progression of disease was suspected. Response to treatment and treatment decisions in all subjects was determined by the Investigators based on modified International Working Group (IWG) response criteria or other appropriate response criteria for the malignancy under study. […]
# [2] = system: subjects with advanced hematologic malignancies with an IDH2 mutation; assay: Phase 1/2 study: safety profile (AEs, NCI CTCAE); format: in vivo, human; conditions: 100 mg
# Source text: (§1) A DLT was defined as outlined below.
# Monitoring of AEs, including determination of DLTs, serious adverse events (SAEs), and AEs leading to discontinuation; safety laboratory parameters; physical examination findings; vital signs; 12-lead ECGs; LVEF; and ECOG PS.
# [3] = system: MDS and mIDH2 with co-occurring gene mutations; assay: Example 3: association of co-occurring somatic mutations (FoundationOne Heme panel) with response to COMPOUND A; format: in vivo, human
# Method: (§2) Cheson et al., Blood. 108:419-425 (2006). […] Overall survival (OS) was estimated using Kaplan-Meier methods.
# Analysis of MDS patients for association of gene mutations found with overall response rate (ORR) was performed on patients who received COMPOUND A and where a clinical response was captured for at least one time point during treatment (Table 12). An average of 2.6 genes were mutated in each patient beyond IDH2.
# [4] = system: patients with MDS and mIDH2; assay: Example 3: safety, treatment-emergent adverse events
# Source text: Patients were relapsed or refractory to prior MDS therapy (Tx) or were not candidates for standard therapies. […] Evaluable patients required a response assessment at Cycle 2 Day 1 or later, or discontinued before assessment. Overall survival (OS) was estimated using Kaplan-Meier methods. Next-generation sequencing identified pre-existing co-occurring genomic alterations using the FoundationOne Heme test on purified mononuclear cells from BM or PB, to assess relationships between co-mutational status and clinical response.
# [5] = system: MDS and mIDH2; assay: Example 2: clinical response to COMPOUND A monotherapy (IWG 2006 MDS criteria), survival; format: in vivo, human
# Source text: as §2
# [6] = system: MDS and mIDH2; assay: Example 3: clinical response to COMPOUND A monotherapy (IWG 2006 MDS criteria), survival; format: in vivo, human
# Source text: as §2
# [7] = system: 2-HG plasma levels; assay: Phase 1/2 study: pharmacodynamic response, 2-HG plasma levels; format: in vivo, human
# Method: Dose Escalation Phase: The dose escalation phase utilized a standard “3+3” design. During the dose escalation phase, consented eligible subjects with relapsed or refractory acute myelogenous leukemia (AML), untreated AML≧60 years of age who were not candidates for standard therapy, or myelodysplastic syndrome with refractory anemia with excess blasts were enrolled into sequential cohorts of increasing doses of COMPOUND A not to exceed 650 mg QD dose. Each dose cohort enrolled a minimum of 3 subjects. The first 3 subjects enrolled in each dosing cohort during the dose escalation portion of the study received a single dose of study drug on Day −3 (i.e., 3 days prior to the start of daily dosing) and underwent safety and PK/PD assessments over 72 hours to evaluate drug concentrations and 2-HG and α-KG levels. The next dose of study drug was on Cycle 1 Day 1 (C1D1) at which time daily dosing began. The initial dosing schedule was twice daily (approximately every 12 hours). Based on the emerging data, a once daily dosing schedule also has been implemented. […]
# Subjects in the dose escalation phase and Part 1 Expansion also underwent PK/PD assessments over a 10-hour period on C1D15, C2D1, and C4D1. […] Available bone marrow biopsy samples also were assessed for 2-HG and α-KG levels. […]
# [8] = system: patients with MDS and mIDH2; assay: Example 2: safety, treatment-emergent adverse events; format: in vivo, human
# Source text: as §1, §2
# [9] = 10 evaluable pts with prior HMA Tx
# [10] = evaluable pts had ≧5% BM blasts at baseline
# [11] = sustained ≧4 weeks, from beginning COMPOUND A Tx
# [12] = 13 patients with prior HMA therapy
# [13] = IWG 2006, denominators reflect eligibility
# [14] = investigator-assessed, evaluable patients had ≧5% bone marrow blasts at baseline
# [15] = programmatically adjudicated per IWG 2006 criteria, denominators reflect eligibility
compound,measurement,setting,value
"CC(C)(O)CNc1nc(Nc2ccnc(C(F)(F)F)c2)nc(-c2cccc(C(F)(F)F)n2)n1.CS(=O)(=O)O [COMPOUND A, mesylate salt of 2-methyl-1-[(4-[6-(trifluoromethyl)pyridin-2-yl]-6-{[2-(trifluoromethyl)pyridin-4-yl]amino}-1,3,5-triazin-2-yl)amino]propan-2-ol]",overall response rate,[1],36.4%
same,"safety profile, including ≧Grade 3",[2],consistent with that of lower doses
same,ORR OR,[3]; ASXL1 mutation,2.500
same,ORR OR,[3]; KRAS mutation,0.214
same,clinical responses (≧HI) by co-occurring mutation,[3]; MDS patients with mIDH2,"observed in the presence of all mutations except TP53, U2AF1, SETBP1, TCF3, STAG2, NRAS, JAK2 and BRAF"
same,mutations enriched in MDS patients with clinical response (≧HI),[3]; MDS patients with mIDH2,"patients with mutations in SRSF2, MPL and ASXL1 are enriched"
same,ORR OR,[3]; MPL mutation,4.231
same,ORR OR,[3]; SETBP1 mutation,0.082
same,ORR OR,[3]; SRSF2 mutation,12.000
same,ORR OR,[3]; TP53 mutation,0.082
same,ORR OR,[3]; U2AF1 mutation,0.082
same,ORR,[3]; patients with ASXL1 mutation,0.714
same,ORR,[3]; patients with KRAS mutation,0.333
same,ORR,[3]; patients with MPL mutation,1.000
same,ORR,[3]; patients with SETBP1 mutation,0.000
same,ORR,[3]; patients with SRSF2 mutation,0.857
same,ORR,[3]; patients with TP53 mutation,0.000
same,ORR,[3]; patients with U2AF1 mutation,0.000
same,Grade 3-4 TEAE Anemia,[4]; MDS patients n=17,18%
same,Grade 3-4 TEAE Dyspnea,[4]; MDS patients n=17,12%
same,Grade 3-4 TEAE Tumor lysis syndrome,[4]; MDS patients n=17,12%
same,Grade 3-4 TEAE hypokalemia,[4]; MDS patients n=17,18%
same,Grade 3-4 TEAE pneumonia,[4]; MDS patients n=17,24%
same,Grade 3-4 TEAE thrombocytopenia,[4]; MDS patients n=17,24%
same,Grade 3-4 treatment-emergent AEs (TEAEs),[4]; MDS patients n=17,82%
same,"Grade 3-4 treatment-emergent AEs (TEAEs), patients",[4]; MDS patients n=17,14 patients
same,"grade 3-4 drug-related TEAE, patients",[4]; MDS patients n=17,Six
same,treatment related deaths,[4]; MDS patients n=17,No treatment related deaths were reported
same,"COMPOUND A-related serious TEAEs, patients","[4]; n=17, tumor lysis syndrome [2], blood bilirubin increased, transaminitis",4 patients
same,Grade 3-4 TEAE Hyperbilirubinemia,"[4]; n=17, unconjugated, includes hyperbilirubinemia and blood bilirubin increased",30%
same,responses in pts with no prior MDS Tx,[5]; 4 pts with no prior MDS Tx,a PR and mCR (1 each)
same,pts with a response among pts who had received prior HMA Tx,[5]; [9],5 pts
same,response rate among pts who had received prior HMA Tx,[5]; [9],50%
same,Best response Hematologic Improvement,[5]; MDS pts N=16,(27) %
same,"Best response Hematologic Improvement, pts/evaluable",[5]; MDS pts N=16,4/15
same,"Overall response rate (CR + PR + mCR + HI), responders/evaluable","[5]; MDS pts N=16, oral 60-300 mg daily, 28-day cycles",8/15
same,Best response Complete Remission,[5]; [10],(11) %
same,Best response Marrow CR,[5]; [10],(22) %
same,"Best response Marrow CR, pts/evaluable",[5]; [10],2/9
same,Best response Partial Remission,[5]; [10],(11) %
same,"Best response Partial Remission, pts/evaluable",[5]; [10],1/9
same,Median OS,"[5]; median follow-up of 4.7 months, Kaplan-Meier",not reached
same,"Median time to CR, PR, or mCR",[5]; [11],24 days
same,"time to CR, PR, or mCR, range",[5]; [11],17 to 87 days
same,Median time to HI,[5]; sustained ≧8 weeks,11 days
same,"time to HI, range",[5]; sustained ≧8 weeks,11 to 60 days
same,patients with a response among patients who had received prior HMA therapy,[6]; [12],7 patients
same,response rate among patients who had received prior HMA therapy,[6]; [12],54%
same,HI-E,[6]; [13],20%
same,"HI-E, patients/eligible",[6]; [13],3/15
same,HI-N,[6]; [13],40%
same,"HI-N, patients/eligible",[6]; [13],4/10
same,HI-P,[6]; [13],33%
same,"HI-P, patients/eligible",[6]; [13],4/12
same,Overall response rate (CR + PR + mCR + HI),[6]; MDS patients N=17,59%
same,"Overall response rate (CR + PR + mCR + HI), responders/evaluable",[6]; MDS patients N=17,10/17
same,Best response Complete Remission,[6]; [14],9%
same,"Best response Complete Remission, patients/evaluable",[6]; [14],1/11
same,Best response Marrow CR,[6]; [14],27%
same,"Best response Marrow CR, patients/evaluable",[6]; [14],3/11
same,Best response Partial Remission,[6]; [14],9%
same,"Best response Partial Remission, patients/evaluable",[6]; [14],1/11
same,median overall survival,[6]; median follow-up of 7.5 months,not reached
same,patients with bilineage improvement,[6]; of patients who attained HI,2 patients
same,patients with trilineage improvement,[6]; of patients who attained HI,2 patients
same,Any Hematologic Improvement (HI),[6]; [15],29%
same,"Any Hematologic Improvement (HI), patients/eligible",[6]; [15],5/17
same,median time to response,[6]; treated MDS patients,21 days
same,"time to response, range",[6]; treated MDS patients,10 to 87 days
same,inhibition of 2-HG plasma levels,"[7]; most subjects with R140Q mutation, all doses, sustained reduction by Day 1 of Cycle 2",up to 98%
same,exposure and inhibition of 2-HG versus dose,[7]; subjects with R172K mutation,Increasing dose was associated with higher exposure and inhibition of 2-HG
same,Grade 3-4 TEAE hyperbilirubinemia (unconjugated),[8]; MDS pts N=16,5 n
same,Grade 3-4 TEAE hypokalemia,[8]; MDS pts N=16,3 n
same,Grade 3-4 TEAE pneumonia,[8]; MDS pts N=16,4 n
same,Grade 3-4 TEAE thrombocytopenia,[8]; MDS pts N=16,3 n
same,Grade 3-4 treatment-emergent AEs (TEAEs),[8]; MDS pts N=16,81%
same,"Grade 3-4 treatment-emergent AEs (TEAEs), pts",[8]; MDS pts N=16,13 pts
same,grade 3-4 drug-related TEAE,[8]; MDS pts N=16,44%
same,"grade 3-4 drug-related TEAE, pts",[8]; MDS pts N=16,Seven
same,tolerability of daily oral monotherapy,[8]; MDS pts with mIDH2,well tolerated
